Measurements as given in US20220348565A1, “PHARMACEUTICAL COMPOUNDS” (SENTINEL ONCOLOGY LIMITED, priority 2019, published 2022).

How the values were obtained:
[1] = test system: HCT116 xenograft tumours; experiment: HCT116 subcutaneous xenograft model; assay type: in vivo, Male athymic nude mice; conditions: oral 100 mg/kg on days 1, 8 and 15; day 20
Procedure: Male athymic nude mice bearing HCT116 xenograft tumours were give an oral dose of 100 mg/kg atropisomer A-2 on days 1, 8 and 15 and the tumour volumes were measured over 3 weeks. Tumour volumes in a control group of tumour-bearing mice, who had received vehicle only at the same time points were also measured.

[2] = test system: panel of 48 cancer-derived cell lines; experiment: Proliferation assay on diverse cancer cell line panel, CellTiter-Glo, 72 hours; assay type: cell-based; conditions: for IC50: 72 hours, listed as A-2
Procedure: Screening against diverse cancer cell lines was performed to identify tumour types displaying sensitivity to atropisomers A-1 and A-2. A panel of 48 cancer-derived cell lines was screened in a high-throughput proliferation assay using dilutions of atropisomers A-1/A-2. Cell lines that were screened included those representing cancer of the pancreas, large intestine/colorectum, lung, brain and nerves, and lymphoma and leukaemia cell lines. Cell lines were treated with serial half-log dilutions of compound and assayed 72 hours later for proliferation using CellTiter-Glo Assay (Promega). IC50 values were calculated by fitting the dose-response data using a nonlinear regression model.

[3] = Chiral stability (interconversion) of isolated atropisomers on heating, chiral HPLC; assay type: physicochemical; conditions: for % ee of sample @ 40° C. / % ee sample @ 80° C.: EtOH solution, listed as A-2
Procedure: Stability studies were carried out on the isolated atropisomers, atropisomers A-1 and A-2. To assess the interconversion of atropisomer A-1 and atropisomer A-2 chiral stability was monitored at 40° C. and 80° C. […] 1. 2×1 mg of pure atropisomer was dissolved in 1 mL of EtOH in a sealed-dram vial. 2. One set of vials was heated at 40° C. and another set at 80° C. 3. […] 4. Analysis was carried out at the following timepoints: 0 h, 24 h, 48 h, 72 h, 96 h and 240 h for the samples kept at 40° C. and 24 h, 96 h and 240 h for the samples kept at 80° C. using Chiral HPLC method 5

- IC50 ([2]; HOT 116, Large intestine/Colorectum): 230 nM
- IC50 ([2]; ML-2, Blood/Leukaemia): 180 nM
- IC50 ([2]; SVV620, Large intestine/Colorectum): 190 nM
- % ee of sample @ 40° C. ([3]; 0 h): 97.20 % ee
- % ee of sample @ 40° C. ([3]; 24 h): 97.34 % ee
- % ee of sample @ 40° C. ([3]; 48 h): 97.30 % ee
- % ee of sample @ 40° C. ([3]; 72 h): 97.24 % ee
- % ee of sample @ 40° C. ([3]; 96 h): 97.14 % ee
- % ee of sample @ 40° C. ([3]; 10 days): 97.46 % ee
- % ee sample @ 80° C. ([3]; 0 h): 97.20 % ee
- % ee sample @ 80° C. ([3]; 24 h): 95.62 % ee
- % ee sample @ 80° C. ([3]; 96 h): 96.62 % ee
- % ee sample @ 80° C. ([3]; 10 days): 97.12 % ee
- atropisomer classification (LaPlante) ([3]; from stability of isolated atropisomers): Class 3
- interconversion / racemization of atropisomers on heating ([3]; heating for 10 days at 40° C. and 80° C.): no interconversion was observed
SMILES: CN(C)CCNC(=O)c1ccc(-c2ccc(-c3ccc(Cl)cc3)n2-c2ccccc2C(F)(F)F)cc1 (single isomer, unassigned) [Atropisomer A-2, 4-[5-(4-chlorophenyl)-1-[2-(trifluoromethyl)phenyl]pyrrol-2-yl]-N-[2-(dimethylamino)ethyl]benzamide]
- TGI [1]: 60%
- cell growth inhibition compared with atropisomer A-1 ([2]; all of the cell lines of the panel): significantly more active
